According to patent US11919901B2 (Syndax Pharmaceuticals, Inc., priority 2021, dated 2024):

Assays:
hERG = hERG (Homo sapiens (Human), UniProt Q12809); experiment: Patch clamp assay (hERG tail currents, whole-cell); type: cell-based; conditions: hERG transfected HEK 293 cells; for hERG % Remaining 10 μM: 10 μM compound; for hERG % Remaining 30 μM: 30 μM compound
Method: The 35 mm culture dishes upon which cells were seeded at a density allowing single cells to be recorded were placed on the dish holder of the microscope and continuously perfused (at approximately 1 mL/min) with the bath solution described in section 4.6. All solutions applied to cells including the pipette solution were maintained at room temperature (19° C. to 30° C.). After formation of a Gigaohm seal between the patch electrodes and individual hERG stably transfected HEK 293 cells (pipette resistance range: 2.0 MΩ2 to 7.0 MΩ; seal resistance range: >1GΩ) the cell membrane across the pipette tip was ruptured to assure electrical access to the cell interior (whole-cell patch-configuration). In case the quality of the seal was poor, the process of seal formation was repeated with a different cell and a new pipette. As soon as a stable seal could be established, hERG outward tail currents were measured upon depolarization of the cell membrane to +20 mV for 2s (activation of channels) from a holding potential of −80 mV and upon subsequent repolarization to −40 mV for 3 s. This voltage protocol (as shown below) was run at least 10 times at intervals of 10 s. If current density was judged to be too low for measurement, another cell was recorded.
During wash-in of the test item the voltage protocol indicated above was run continuously again at 10 s intervals until the steady-state level of block was reached.
The IC50 was determined by fitting the dose response curve with a 2-parameter logistic function (amax=100%).

Menin-MLL = Menin-MLL (Homo sapiens (Human), UniProt O00255); experiment: Determination of binding constants (Ki) to Menin-MLL (HTRF); conditions: HTRF, 0.25 nM H-FL-Menin, 3.2 nM FITC-MLL-4-43, 24 hr incubation; for Ki: read-out: Menin-MLL Ki HTRF Assay: Ki
Menin-MLL, sequence (O00255 whole entry): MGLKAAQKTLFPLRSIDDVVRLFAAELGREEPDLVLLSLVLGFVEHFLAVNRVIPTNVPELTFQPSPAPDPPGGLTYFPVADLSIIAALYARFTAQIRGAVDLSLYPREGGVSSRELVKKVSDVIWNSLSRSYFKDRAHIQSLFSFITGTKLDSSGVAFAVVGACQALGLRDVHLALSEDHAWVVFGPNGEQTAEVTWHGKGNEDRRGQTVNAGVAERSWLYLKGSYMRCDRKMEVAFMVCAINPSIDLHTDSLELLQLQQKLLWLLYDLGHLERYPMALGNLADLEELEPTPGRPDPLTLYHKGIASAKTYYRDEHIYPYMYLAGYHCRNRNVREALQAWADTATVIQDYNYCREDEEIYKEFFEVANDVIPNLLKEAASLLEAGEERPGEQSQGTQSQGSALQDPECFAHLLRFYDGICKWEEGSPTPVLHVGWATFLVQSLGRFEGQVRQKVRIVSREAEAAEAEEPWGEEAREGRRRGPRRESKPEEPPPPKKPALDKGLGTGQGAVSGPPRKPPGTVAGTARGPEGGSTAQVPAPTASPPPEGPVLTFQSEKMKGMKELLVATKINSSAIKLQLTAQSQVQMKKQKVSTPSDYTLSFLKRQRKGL

hERG, sequence (Q12809 whole entry): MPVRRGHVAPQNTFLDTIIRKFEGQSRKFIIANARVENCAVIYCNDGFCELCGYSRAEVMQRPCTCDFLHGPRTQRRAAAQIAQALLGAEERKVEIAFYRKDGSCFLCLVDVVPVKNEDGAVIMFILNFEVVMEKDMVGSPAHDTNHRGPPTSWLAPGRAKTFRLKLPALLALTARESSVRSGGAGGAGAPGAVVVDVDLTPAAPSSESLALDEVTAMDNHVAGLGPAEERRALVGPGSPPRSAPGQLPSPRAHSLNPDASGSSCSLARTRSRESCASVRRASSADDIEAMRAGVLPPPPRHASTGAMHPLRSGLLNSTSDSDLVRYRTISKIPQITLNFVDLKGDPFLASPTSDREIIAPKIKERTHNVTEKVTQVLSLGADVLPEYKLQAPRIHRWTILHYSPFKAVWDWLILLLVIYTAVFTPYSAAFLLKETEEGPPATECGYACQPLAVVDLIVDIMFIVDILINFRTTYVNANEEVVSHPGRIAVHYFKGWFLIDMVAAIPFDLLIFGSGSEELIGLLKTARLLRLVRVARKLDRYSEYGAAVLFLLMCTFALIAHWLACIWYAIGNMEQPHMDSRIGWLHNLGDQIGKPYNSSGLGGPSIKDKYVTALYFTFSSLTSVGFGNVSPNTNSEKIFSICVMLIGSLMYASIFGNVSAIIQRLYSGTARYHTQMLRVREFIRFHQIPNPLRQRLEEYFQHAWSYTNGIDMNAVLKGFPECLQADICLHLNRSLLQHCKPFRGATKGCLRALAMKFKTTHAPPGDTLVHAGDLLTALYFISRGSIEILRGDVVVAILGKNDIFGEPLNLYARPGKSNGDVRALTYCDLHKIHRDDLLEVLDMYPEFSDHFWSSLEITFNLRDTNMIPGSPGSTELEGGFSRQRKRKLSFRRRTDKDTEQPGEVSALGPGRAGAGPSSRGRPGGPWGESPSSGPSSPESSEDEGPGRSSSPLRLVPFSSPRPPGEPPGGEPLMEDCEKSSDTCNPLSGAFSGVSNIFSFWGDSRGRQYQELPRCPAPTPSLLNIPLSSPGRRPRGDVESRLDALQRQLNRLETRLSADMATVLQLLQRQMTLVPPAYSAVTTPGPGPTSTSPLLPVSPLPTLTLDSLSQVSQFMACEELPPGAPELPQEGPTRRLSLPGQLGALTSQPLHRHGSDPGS

With `CCS(=O)(=O)N[C@@H]1CC[C@@H](CN2CCC3(CC2)CN(c2ncncc2Oc2ccc(F)cc2C(=O)N(CC(F)F)C(C)C)C3)OC1` [Compound 34, N-(2,2-difluoroethyl)-2-((4-(7-(((2S,5R)-5-(ethylsulfonamido)tetrahydro-2H-pyran-2-yl)methyl)-2,7-diazaspiro[3.5]nonan-2-yl)pyrimidin-5-yl)oxy)-5-fluoro-N-isopropylbenzamide] the “hERG % Remaining 1 μM” value (hERG; 1 μM compound) was “+++ (“+++” means ≥66%)”, the “hERG % Remaining 3 μM” value (hERG; 3 μM compound) was “+++ (“+++” means ≥66%)” and the “hERG % Remaining 10 μM” value (hERG) was “+++ (“+++” means ≥66%)”. The “hERG % Remaining 30 μM” value (hERG) was “++ (“++” means ≥33% and <66%)”, the “hERG % Remaining 100 μM” value (hERG; 100 μM compound) was “+ (“+” means <33%)” and the IC50 (hERG) was 25000 to 50000 nM. The EC50 (Menin-MLL) was < 50 nM and the Ki (Menin-MLL) was < 1 nM.

With `CCN(C(=O)c1cc(F)ccc1Oc1cncnc1N1CC2(CCN(C[C@@H]3CC[C@@H](NC(=O)NCC(F)(F)F)CO3)CC2)C1)C(C)C` [Compound 37, N-ethyl-5-fluoro-N-isopropyl-2-((4-(7-(((2S,5R)-5-(3-(2,2,2-trifluoroethyl)ureido)tetrahydro-2H-pyran-2-yl)methyl)-2,7-diazaspiro[3.5]nonan-2-yl)pyrimidin-5-yl)oxy)benzamide] the “hERG % Remaining 10 μM” value (hERG) was “+ (“+” means <33%)”, the “hERG % Remaining 30 μM” value (hERG) was “+ (“+” means <33%)” and the EC50 (Menin-MLL) was < 50 nM. For the same compound, the Ki (Menin-MLL) was < 1 nM.

With `CCS(=O)(=O)N[C@@H]1CC[C@@H](CN2CCC3(CC2)CN(c2ncncc2Oc2ccc(F)cc2C(=O)N(CCC#N)C(C)C)C3)OC1` [Compound 43, N-(2-cyanoethyl)-2-((4-(7-(((2S,5R)-5-(ethylsulfonamido)tetrahydro-2H-pyran-2-yl)methyl)-2,7-diazaspiro[3.5]nonan-2-yl)pyrimidin-5-yl)oxy)-5-fluoro-N-isopropylbenzamide] the “hERG % Remaining 10 μM” value (hERG) was “+++ (“+++” means ≥66%)”, the “hERG % Remaining 30 μM” value (hERG) was “++ (“++” means ≥33% and <66%)” and the EC50 (Menin-MLL) was < 50 nM. The Ki (Menin-MLL) was < 1 nM.

For `CCS(=O)(=O)N[C@@H]1CC[C@@H](CN2CCC3(CC2)CN(c2ncncc2Oc2ccc(F)cc2C(=O)N(C(C)C)C2CC(F)(F)C2)C3)OC1` [Compound 44, N-(3,3-difluorocyclobutyl)-2-((4-(7-(((2S,5R)-5-(ethylsulfonamido)tetrahydro-2H-pyran-2-yl)methyl)-2,7-diazaspiro[3.5]nonan-2-yl)pyrimidin-5-yl)oxy)-5-fluoro-N-isopropylbenzamide], the “hERG % Remaining 10 μM” value (hERG) was “+++ (“+++” means ≥66%)”, the “hERG % Remaining 30 μM” value (hERG) was “++ (“++” means ≥33% and <66%)” and the EC50 (Menin-MLL) was < 50 nM. For the same compound, the Ki (Menin-MLL) was < 1 nM.

In the case of `CCN(C(=O)c1cc(F)ccc1Oc1cncnc1N1CC2(CCN(C[C@@H]3CC[C@@H](NS(=O)(=O)c4ccccc4)CO3)CC2)C1)C(C)C` [Compound 45, N-ethyl-5-fluoro-N-isopropyl-2-((4-(7-(((2S,5R)-5-(phenylsulfonamido)tetrahydro-2H-pyran-2-yl)methyl)-2,7-diazaspiro[3.5]nonan-2-yl)pyrimidin-5-yl)oxy)benzamide], the “hERG % Remaining 10 μM” value (hERG) is reported as “++ (“++” means ≥33% and <66%)”, the “hERG % Remaining 30 μM” value (hERG) is reported as “+ (“+” means <33%)” and the EC50 (Menin-MLL) is reported as < 50 nM. For the same compound, the Ki (Menin-MLL) was < 1 nM.

In the case of `CC(C)N(CC(F)F)C(=O)c1cc(F)ccc1Oc1cncnc1N1CC2(CCN(C[C@@H]3CC[C@@H](NS(=O)(=O)C4CC4)CO3)CC2)C1` [Compound 47, 2-((4-(7-(((2S,5R)-5-(cyclopropanesulfonamido)tetrahydro-2H-pyran-2-yl)methyl)-2,7-diazaspiro[3.5]nonan-2-yl)pyrimidin-5-yl)oxy)-N-(2,2-difluoroethyl)-5-fluoro-N-isopropylbenzamide], the “hERG % Remaining 10 μM” value (hERG) is reported as “+++ (“+++” means ≥66%)”, the “hERG % Remaining 30 μM” value (hERG) is reported as “++ (“++” means ≥33% and <66%)” and the EC50 (Menin-MLL) is reported as < 50 nM. The Ki (Menin-MLL) was < 1 nM.

In the case of `CCN(C(=O)c1cc(F)ccc1Oc1cncnc1N1CC2(CCN(C[C@@H]3CC[C@@H](NS(=O)(=O)N(C)C)CO3)CC2)C1)C(C)C` [Compound 49, 2-((4-(7-(((2S,5R)-5-((N,N-dimethylsulfamoyl)amino)tetrahydro-2H-pyran-2-yl)methyl)-2,7-diazaspiro[3.5]nonan-2-yl)pyrimidin-5-yl)oxy)-N-ethyl-5-fluoro-N-isopropylbenzamide], the “hERG % Remaining 10 μM” value (hERG) is reported as “+++ (“+++” means ≥66%)”, the “hERG % Remaining 30 μM” value (hERG) is reported as “+++ (“+++” means ≥66%)” and the IC50 (hERG) is reported as ≥ 50000 nM. The EC50 (Menin-MLL) was < 50 nM and the Ki (Menin-MLL) was < 1 nM.

With `CCN(C(=O)c1cc(F)ccc1Oc1cncnc1N1CC2(CCN(C[C@@H]3CC[C@@H](NS(=O)(=O)c4ccccn4)CO3)CC2)C1)C(C)C` [Compound 58, N-ethyl-5-fluoro-N-isopropyl-2-((4-(7-(((2S,5R)-5-(pyridine-2-sulfonamido)tetrahydro-2H-pyran-2-yl)methyl)-2,7-diazaspiro[3.5]nonan-2-yl)pyrimidin-5-yl)oxy)benzamide] the “hERG % Remaining 10 μM” value (hERG) was “+++ (“+++” means ≥66%)”, the “hERG % Remaining 30 μM” value (hERG) was “++ (“++” means ≥33% and <66%)” and the EC50 (Menin-MLL) was < 50 nM. The Ki (Menin-MLL) was < 1 nM.

In the case of `CCN(C(=O)c1cc(F)ccc1Oc1cncnc1N1CC2(CCN(C[C@@H]3CC[C@@H](NS(=O)(=O)c4ccccc4Cl)CO3)CC2)C1)C(C)C` [Compound 59, 2-((4-(7-(((2S,5R)-5-((2-Chlorophenyl)sulfonamido)tetrahydro-2H-pyran-2-yl)methyl)-2,7-diazaspiro[3.5]nonan-2-yl)pyrimidin-5-yl)oxy)-N-ethyl-5-fluoro-N-isopropylbenzamide], the “hERG % Remaining 10 μM” value (hERG) is reported as “+ (“+” means <33%)”, the “hERG % Remaining 30 μM” value (hERG) is reported as “+ (“+” means <33%)” and the EC50 (Menin-MLL) is reported as < 50 nM. For the same compound, the Ki (Menin-MLL) was < 1 nM.

For `CCN(C(=O)c1cc(F)ccc1Oc1cncnc1N1CC2(CCN(C[C@@H]3CC[C@@H](NS(=O)(=O)c4ccc(OC)cc4)CO3)CC2)C1)C(C)C` [Compound 62, N-Ethyl-5-fluoro-N-isopropyl-2-((4-(7-(((2S,5R)-5-((4-methoxyphenyl)sulfonamido)tetrahydro-2H-pyran-2-yl)methyl)-2,7-diazaspiro[3.5]nonan-2-yl)pyrimidin-5-yl)oxy)benzamide], the “hERG % Remaining 10 μM” value (hERG) was “+ (“+” means <33%)”, the “hERG % Remaining 30 μM” value (hERG) was “+ (“+” means <33%)” and the EC50 (Menin-MLL) was < 50 nM. For the same compound, the Ki (Menin-MLL) was < 1 nM.

`CCN(C(=O)c1cc(F)ccc1Oc1cncnc1N1CC2(CCN(C[C@@H]3CC[C@@H](NS(=O)(=O)c4cccnc4)CO3)CC2)C1)C(C)C` [Compound 63, N-Ethyl-5-fluoro-N-isopropyl-2-((4-(7-(((2S,5R)-5-(pyridine-3-sulfonamido)tetrahydro-2H-pyran-2-yl)methyl)-2,7-diazaspiro[3.5]nonan-2-yl)pyrimidin-5-yl)oxy)benzamide] was tested, and the “hERG % Remaining 10 μM” value (hERG) was “+++ (“+++” means ≥66%)”, the “hERG % Remaining 30 μM” value (hERG) was “++ (“++” means ≥33% and <66%)” and the EC50 (Menin-MLL) was < 50 nM. The Ki (Menin-MLL) was < 1 nM.

With `CCN(C(=O)c1cc(F)ccc1Oc1cncnc1N1CC2(CCN(C[C@@H]3CC[C@@H](NS(=O)(=O)N4CCOCC4)CO3)CC2)C1)C(C)C` [Compound 64, N-Ethyl-5-fluoro-N-isopropyl-2-((4-(7-(((2S,5R)-5-(morpholine-4-sulfonamido)tetrahydro-2H-pyran-2-yl)methyl)-2,7-diazaspiro[3.5]nonan-2-yl)pyrimidin-5-yl)oxy)benzamide] the “hERG % Remaining 10 μM” value (hERG) was “+++ (“+++” means ≥66%)”, the “hERG % Remaining 30 μM” value (hERG) was “++ (“++” means ≥33% and <66%)” and the EC50 (Menin-MLL) was < 50 nM. For the same compound, the Ki (Menin-MLL) was < 1 nM.

`CCN(C(=O)c1cc(F)ccc1Oc1cncnc1N1CC2(CCN(C[C@@H]3CC[C@@H](NS(=O)(=O)c4ccccc4OC)CO3)CC2)C1)C(C)C` [Compound 65, N-Ethyl-5-fluoro-N-isopropyl-2-((4-(7-(((2S,5R)-5-((2-methoxyphenyl)sulfonamido)tetrahydro-2H-pyran-2-yl)methyl)-2,7-diazaspiro[3.5]nonan-2-yl)pyrimidin-5-yl)oxy)benzamide] was tested, and the “hERG % Remaining 10 μM” value (hERG) was “++ (“++” means ≥33% and <66%)”, the “hERG % Remaining 30 μM” value (hERG) was “+ (“+” means <33%)” and the EC50 (Menin-MLL) was < 50 nM. The Ki (Menin-MLL) was < 1 nM.

With `CCN(C(=O)c1cc(F)ccc1Oc1cncnc1N1CC2(CCN(C[C@@H]3CC[C@@H](NS(=O)(=O)c4cccc(OC)c4)CO3)CC2)C1)C(C)C` [Compound 66, N-Ethyl-5-fluoro-N-isopropyl-2-((4-(7-(((2S,5R)-5-((3-methoxyphenyl)sulfonamido)tetrahydro-2H-pyran-2-yl)methyl)-2,7-diazaspiro[3.5]nonan-2-yl)pyrimidin-5-yl)oxy)benzamide] the “hERG % Remaining 10 μM” value (hERG) was “+ (“+” means <33%)”, the “hERG % Remaining 30 μM” value (hERG) was “+ (“+” means <33%)” and the EC50 (Menin-MLL) was < 50 nM. For the same compound, the Ki (Menin-MLL) was < 1 nM.

In the case of `CCN(C(=O)c1cc(F)ccc1Oc1cncnc1N1CC2(CCN(C[C@@H]3CC[C@@H](NS(=O)(=O)c4cnn(C)c4)CO3)CC2)C1)C(C)C` [Compound 68, N-Ethyl-5-fluoro-N-isopropyl-2-((4-(7-(((2S,5R)-5-((1-methyl-1H-pyrazole)-4-sulfonamido)tetrahydro-2H-pyran-2-yl)methyl)-2,7-diazaspiro[3.5]nonan-2-yl)pyrimidin-5-yl)oxy)benzamide], the “hERG % Remaining 10 μM” value (hERG) is reported as “+++ (“+++” means ≥66%)”, the “hERG % Remaining 30 μM” value (hERG) is reported as “+++ (“+++” means ≥66%)” and the IC50 (hERG) is reported as ≥ 50000 nM. For the same compound, the EC50 (Menin-MLL) was < 50 nM and the Ki (Menin-MLL) was < 1 nM.

With `CCN(C(=O)c1cc(F)ccc1Oc1cncnc1N1CC2(CCN(C[C@@H]3CC[C@@H](NS(=O)(=O)N4CCC4)CO3)CC2)C1)C(C)C` [Compound 69, 2-((4-(7-(((2S,5R)-5-(Azetidine-1-sulfonamido)tetrahydro-2H-pyran-2-yl)methyl)-2,7-diazaspiro[3.5]nonan-2-yl)pyrimidin-5-yl)oxy)-N-ethyl-5-fluoro-N-isopropylbenzamide] the “hERG % Remaining 10 μM” value (hERG) was “+++ (“+++” means ≥66%)”, the “hERG % Remaining 30 μM” value (hERG) was “++ (“++” means ≥33% and <66%)” and the IC50 (hERG) was 25000 to 50000 nM. The EC50 (Menin-MLL) was < 50 nM and the Ki (Menin-MLL) was < 1 nM.
